Test results: patent US20180318383A1, “PEPTIDE HAVING NEURONAL LOSS PREVENTION AND REGENERATION EFFECTS, AND COMPOSITION CONTAINING SAME” (GEMVAX & KAEL CO., LTD., priority 2015, published 2018)

Experiments:
GFAP = GFAP expression in 3XTg-AD mice (western blotting); format: in vivo; conditions: hippocampus and whole brain; s.c. three times a week for two months; vs control and Donepezil, same amount
Protocol: To test the efficacy of PEP1 on AD, AD transgenic mice (3XTg-AD) were purchased from Jackson Laboratory. Genetic characteristics of the transgenic mice are as follows: B6; 129-Psen1tm1Mpm Tg(APPSwe, tauP301L)1Lfa/Mmjax. […] One week after mice were confirmed as pregnant, new mice were delivered and weaned for 3 weeks. Two weeks later, mature mice were obtained.
During the preliminary breeding and the entire period of the experiment, a temperature was maintained at 23±2° C. and a relative humidity was maintained at 60±10%, and then the mice were raised under a 12-hour dark/light cycle. Experimental animals were divided into five groups, and each group included 10 animals. The divided experimental groups are as follows. […]
The PEP1, physiological saline, donepezil and scramble peptide were subcutaneously injected at each concentration three times a week for two months from the age of 12 months, and then two months after the injection, cognitive/memory behavior tests (passive avoidance test and Y maze test) were performed to examine a degree of improvement in cognitive function and memory function. After the brain was extracted to separate the hippocampus, the amounts of amyloid beta in the hippocampus and the whole brain, and the amounts of an amyloid beta oligomer and NFT generated by tau hyperphosphorylation were determined by western blotting and immunostaining. […]

NSCs [1] = test: Cell migration assay (QCM-24-well kit); format: cell-based, rat; conditions: 20 μM Aβ25-35 + PEP1 1, 10, 50 μM
Protocol: A cell migration assay was carried out using a QCM-24-well cell migration kit. Briefly, 20 μM Aβ25-30 and each concentration of PEP1 (1, 10 or 50 μM) were added to a lower chamber, and 3×10^5 NSCs were cultured in an upper chamber at 37° C. for 24 hours. NSCs migrated toward the membrane, and after staining to observe the number of migrating cells, absorbance was measured at 560 nm.

NSCs [2] = test: ROS production in NSCs (DCFH-DA staining); format: cell-based, rat; conditions: 20 μM Aβ25-35 + PEP1, 48 hours, DCF fluorescence
Protocol: NSCs were treated with 20 μM Aβ25-30 for 48 hours and stained with DCFH-DA for 15 minutes to measure ROS. NSCs were treated with a varying concentration of PEP1 and 20 μM Aβ25-30 for 48 hours. After culturing, the cells were stained with 10 μM DCFH-DA at 37° C. for 15 minutes and washed with PBS three times. DCFH-DA freely passed through the cell membrane, and then was degraded into DCF by an esterase present in the cells. Therefore, a DCF fluorescent intensity refers to an intracellular hydrogen peroxide (ROS) level. DCF accumulation was evaluated using a reader according to an absorbance at 490 nm and a reference absorbance at 690 nm. Flow cytometry was observed and analyzed using an Accuri C6 flow cytometer.

NSCs [3] = test: Apoptosis of NSCs by DAPI and TUNEL staining; format: cell-based, rat; conditions: 20 μM Aβ25-35 + PEP1 up to 100 μM, 48 hours; p<0.05
Protocol: NSCs were placed onto collagen-coated glass coverslips with a diameter of 13 mm, and then treated in the manner described below: 1) […]; 2) treated with only 20 μM Aβ25-30; or 3) treated with 20 μM Aβ25-30 and PEP1 at each concentration (1, 10, 50, or 100 μM) for 48 hours.
The cells were washed with PBS and fixed with 4% paraformaldehyde for 20 minutes.
TUNEL staining is a method used to confirm apoptosis. To observe an intact, condensed or fragmented nucleus, the cells that have been stained with TUNEL were treated with 100 μg/ml DAPI for 20 minutes to stain the nucleus, and then mounted on a glass slide to which a DAPI-mixed mounting medium was applied.
The cells were observed under a fluorescence microscope and observed at excitation fluorescence wavelengths corresponding to DAPI and TUNEL.

EARPALLTSRLRFIPK (homo sapiens) [PEP1, hTERT-derived peptide consisting of 16 amino acids, telomerase location [611-626]]
GFAP (GFAP): reduced | migration ability of NSCs (NSCs [1]): effectively restored migration | amount of ROS induced by Aβ25-35 (NSCs [2]): significantly reduces | degree of apoptosis of NSCs (NSCs [3]): significantly decreased
